ChEMBL document CHEMBL5584201, “Amphiphilic tribasic galactosamines potentiate rifampicin in Gram-negative bacteria at low Mg++/Ca++concentrations” (Bioorg Med Chem Lett, 2024)
≈ marks a conversion by molar mass, not a printed value.

Experiments:
[1] = test system: Pseudomonas aeruginosa; assay: Antibacterial activity against Pseudomonas aeruginosa PAO1 in low salt containing media by Mueller-Hinton broth based assay; type: functional
[2] = test system: Acinetobacter baumannii; assay: Antibacterial activity against Acinetobacter baumannii ATCC 17978 in low salt containing media by Mueller-Hinton broth based assay; type: functional
[3] = test system: Escherichia coli; assay: Antibacterial activity against Escherichia coli ATCC 25922 in low salt containing media by Mueller-Hinton broth based assay; type: functional
[4] = test system: Pseudomonas aeruginosa; assay: Potentiation of rifampicin-induced antibacterial activity against Pseudomonas aeruginosa PAO1 assessed as rifampicin MIC in low salt containing media by Mueller-Hinton broth based assay; type: functional
[5] = test system: Acinetobacter baumannii; assay: Potentiation of rifampicin-induced antibacterial activity against Acinetobacter baumannii ATCC 17978 assessed as rifampicin MIC in low salt containing media by Mueller-Hinton broth based assay; type: functional
[6] = test system: Escherichia coli; assay: Potentiation of rifampicin-induced antibacterial activity against Escherichia coli ATCC 25922 assessed as rifampicin MIC in low salt containing media by Mueller-Hinton broth based assay; type: functional
[7] = test system: Acinetobacter baumannii; assay: Potentiation of rifampicin-induced antibacterial activity against Acinetobacter baumannii ATCC 17978 assessed as fold change in rifampicin MIC in low salt containing media by Mueller-Hinton broth based assay; type: functional
[8] = test system: Escherichia coli; assay: Potentiation of rifampicin-induced antibacterial activity against Escherichia coli ATCC 25922 assessed as fold change in rifampicin MIC in low salt containing media by Mueller-Hinton broth based assay; type: functional
[9] = test system: Acinetobacter baumannii; assay: Potentiation of rifampicin-induced antibacterial activity against multidrug resistant Acinetobacter baumannii AB027 assessed as fold change in rifampicin MIC at 1/4 MIC in low salt containing media by Mueller-Hinton broth based assay; type: functional
[10] = test system: Acinetobacter baumannii; assay: Potentiation of rifampicin-induced antibacterial activity against multidrug resistant Acinetobacter baumannii AB031 assessed as fold change in rifampicin MIC at 1/4 MIC in low salt containing media by Mueller-Hinton broth based assay; type: functional
[11] = test system: Acinetobacter baumannii; assay: Potentiation of rifampicin-induced antibacterial activity against multidrug resistant Acinetobacter baumannii clinical isolate 92247 assessed as fold change in rifampicin MIC at 1/4 MIC in low salt containing media by Mueller-Hinton broth based assay; type: functional
[12] = test system: Escherichia coli; assay: Potentiation of rifampicin-induced antibacterial activity against Escherichia coli clinical isolate 94393 assessed as fold change in rifampicin MIC at 1/4 MIC in low salt containing media by Mueller-Hinton broth based assay; type: functional
[13] = test system: Escherichia coli; assay: Potentiation of rifampicin-induced antibacterial activity against Escherichia coli clinical isolate 94474 assessed as fold change in rifampicin MIC at 1/4 MIC in low salt containing media by Mueller-Hinton broth based assay; type: functional
[14] = test system: Escherichia coli; assay: Potentiation of rifampicin-induced antibacterial activity against Escherichia coli clinical isolate 107115 assessed as fold change in rifampicin MIC at 1/4 MIC in low salt containing media by Mueller-Hinton broth based assay; type: functional
[15] = test system: Acinetobacter baumannii; assay: Antibacterial activity against Acinetobacter baumannii ATCC 17978 in high concentration of Ca++ and Mg++ containing media by Mueller-Hinton broth based assay; type: functional
[16] = test system: Escherichia coli; assay: Antibacterial activity against Escherichia coli ATCC 25922 in high concentration of Ca++ and Mg++ containing media by Mueller-Hinton broth based assay; type: functional
[17] = test system: Escherichia coli; assay: Antibacterial activity against Escherichia coli […] in high concentration of Ca++ and Mg++ containing media by Mueller-Hinton broth based assay; type: functional
[18] = test system: Pseudomonas aeruginosa; assay: Potentiation of rifampicin-induced antibacterial activity against Pseudomonas aeruginosa PA262 assessed as rifampicin MIC at 2 to 8 microg/ml in high concentration of Ca++ and Mg++ containing media by Mueller-Hinton broth based assay; type: functional; settings: dose 2-8 µg/ml
[19] = test system: Acinetobacter baumannii; assay: Potentiation of rifampicin-induced antibacterial activity against Acinetobacter baumannii 92247 assessed as rifampicin MIC at 2 to 8 microg/ml in high concentration of Ca++ and Mg++ containing media by Mueller-Hinton broth based assay; type: functional; settings: dose 2-8 µg/ml
[20] = test system: Escherichia coli; assay: Potentiation of rifampicin-induced antibacterial activity against Escherichia coli ATCC 25922 assessed as rifampicin MIC at 2 to 8 microg/ml in high concentration of Ca++ and Mg++ containing media by Mueller-Hinton broth based assay; type: functional; settings: dose 2-8 µg/ml
[21] = test system: Escherichia coli; assay: Potentiation of rifampicin-induced antibacterial activity against Escherichia coli […] assessed as rifampicin MIC at 2 to 8 microg/ml in high concentration of Ca++ and Mg++ containing media by Mueller-Hinton broth based assay; type: functional; settings: dose 2-8 µg/ml
[22] = test system: Pseudomonas aeruginosa; assay: Potentiation of rifampicin-induced antibacterial activity against Pseudomonas aeruginosa PAO1 assessed as fold change in rifampicin MIC at 2 to 8 microg/ml in high concentration of Ca++ and Mg++ containing media by Mueller-Hinton broth based assay; type: functional; settings: dose 2-8 µg/ml
[23] = test system: Acinetobacter baumannii; assay: Potentiation of rifampicin-induced antibacterial activity against Acinetobacter baumannii ATCC 17978 assessed as fold change in rifampicin MIC at 2 to 8 microg/ml in high concentration of Ca++ and Mg++ containing media by Mueller-Hinton broth based assay; type: functional; settings: dose 2-8 µg/ml
[24] = test system: Acinetobacter baumannii; assay: Potentiation of rifampicin-induced antibacterial activity against Acinetobacter baumannii 92247 assessed as fold change in rifampicin MIC at 2 to 8 microg/ml in high concentration of Ca++ and Mg++ containing media by Mueller-Hinton broth based assay; type: functional; settings: dose 2-8 µg/ml
[25] = test system: Escherichia coli; assay: Potentiation of rifampicin-induced antibacterial activity against Escherichia coli ATCC 25922 assessed as fold change in rifampicin MIC at 2 to 8 microg/ml in high concentration of Ca++ and Mg++ containing media by Mueller-Hinton broth based assay; type: functional; settings: dose 2-8 µg/ml
[26] = test system: Escherichia coli; assay: Potentiation of rifampicin-induced antibacterial activity against Escherichia coli […] assessed as fold change in rifampicin MIC at 2 to 8 microg/ml in high concentration of Ca++ and Mg++ containing media by Mueller-Hinton broth based assay; type: functional; settings: dose 2-8 µg/ml
[27] = test system: Acinetobacter baumannii; assay: Potentiation of rifampicin-induced antibacterial activity against Acinetobacter baumannii ATCC 17978 assessed as rifampicin MIC at 16 microg/ml in high concentration of Ca++ and Mg++ containing media by Mueller-Hinton broth based assay; type: functional; settings: dose 16 µg/ml
[28] = test system: Escherichia coli; assay: Potentiation of rifampicin-induced antibacterial activity against Escherichia coli […] assessed as rifampicin MIC at 16 microg/ml in high concentration of Ca++ and Mg++ containing media by Mueller-Hinton broth based assay; type: functional; settings: dose 16 µg/ml
[29] = test system: Acinetobacter baumannii; assay: Potentiation of rifampicin-induced antibacterial activity against Acinetobacter baumannii ATCC 17978 assessed as fold change in rifampicin MIC at 16 microg/ml in high concentration of Ca++ and Mg++ containing media by Mueller-Hinton broth based assay; type: functional; settings: dose 16 µg/ml
[30] = test system: Acinetobacter baumannii; assay: Potentiation of rifampicin-induced antibacterial activity against Acinetobacter baumannii 92247 assessed as fold change in rifampicin MIC at 16 microg/ml in high concentration of Ca++ and Mg++ containing media by Mueller-Hinton broth based assay; type: functional; settings: dose 16 µg/ml
[31] = test system: Escherichia coli; assay: Potentiation of rifampicin-induced antibacterial activity against Escherichia coli ATCC 25922 assessed as fold change in rifampicin MIC at 16 microg/ml in high concentration of Ca++ and Mg++ containing media by Mueller-Hinton broth based assay; type: functional; settings: dose 16 µg/ml
[32] = Cytotoxicity against HEK293 cells assessed as cell viability at 9 uM relative to control; type: toxicity, cell-based; settings: human, read-out: Activity

Question: Which results are given for `CCCCCCCCO[C@@H]1O[C@H](CN)[C@H](N)[C@H](OCc2ccc3ccccc3c2)[C@H]1N`?
Answer: MIC [1]: 32 µg/mL; MIC [2]: 16 µg/mL; MIC [3]: 8 µg/mL; MIC [4]: 8 µg/mL; MIC [5]: 4 µg/mL; MIC [6]: 2 µg/mL; fold change (FC) [7]: 256; fold change (FC) [8]: 128; fold change (FC) [9]: 64; fold change (FC) [10]: 64; fold change (FC) [11]: 64; fold change (FC) [12]: 64; fold change (FC) [13]: 64; fold change (FC) [14]: 64; MIC [15]: ≥ 64 µg/mL; MIC [16]: 64 µg/mL (≈ 149 µM); MIC [17]: 64 µg/mL (≈ 149 µM); MIC [18]: 8 µg/mL; MIC [19]: 4 µg/mL; MIC [20]: 2 µg/mL; MIC [21]: 2 µg/mL; fold change (FC) [22]: 1; fold change (FC) [23]: 1; fold change (FC) [24]: 2; fold change (FC) [25]: 1; fold change (FC) [26]: 1; MIC [27]: 16 µg/mL; MIC [28]: 16 µg/mL; fold change (FC) [29]: 1; fold change (FC) [30]: 32; fold change (FC) [31]: 1; viability at 9 µM [32]: 46.4%
